pEC50, pIC50: −log10 of the molar value. Where two headings read alike, the source gives them in different places.
Experiments:
NCI-H358 (K-Ras G12C) = test: CellTiter-Glo cell viability assay, NCI-H358; type: cell-based, human; details: Homo sapiens, NCI-H358, 120 h, class symbols; for pIC50: NCI-H358, 5-day treatment, read-out: Additional H358 Cell Viability assay data (K-Ras G12C, IC50)
Method: Note—The following protocol describes a procedure for monitoring cell viability of K-Ras mutant cancer cell lines in response to a compound of the invention. Other RAS isoforms may be employed, though the number of cells to be seeded will vary based on cell line used.
Test compounds (132.5 nL) were directly dispensed into the assay plates containing cells. […] On day 5, assay plates and their contents were equilibrated to room temperature for approximately 30 minutes. […] Luminescence was measured using the PerkinElmer Enspire. Data were normalized by the following: (Sample signal/Avg. DMSO)*100. The data were fit using a four-parameter logistic fit.

[1] = test system: NCI-H358 cells (K-Ras G12C); test: Potency assay: pERK in NCI-H358 cells; type: cell-based, human; details: Homo sapiens, NCI-H358; H358 KRAS G12C; read-out: pERK EC50
Method: The purpose of this assay is to measure the ability of test compounds to inhibit K-Ras in cells. […] This procedure measures a decrease in cellular pERK in response to test compounds.
NCI-H358 cells were grown and maintained using media and procedures recommended by the ATCC. On the day prior to compound addition, cells were plated in 384-well cell culture plates (40 μl/well) and grown overnight in a 37° C., 5% CO2 incubator. Test compounds were prepared in 10, 3-fold dilutions in DMSO, with a high concentration of 10 mM. On the day of assay, 40 nL of test compound was added to each well of cell culture plate using an Echo550 liquid handler (LabCyte®). Concentrations of test compound were tested in duplicate. After compound addition, cells were incubated 4 hours at 37° C., 5% CO2. Following incubation, culture medium was removed and cells were washed once with phosphate buffered saline.
In some experiments, cellular pERK level was determined using the AlphaLISA SureFire Ultra p-ERK1/2 Assay Kit (PerkinElmer). Cells were lysed in 25 μL lysis buffer, with shaking at 600 RPM at room temperature. […] After a 2-hour incubation in the dark, 5 μL donor mix was added, plate was sealed, and incubated 2 hours at room temperature. Signal was read on an Envision plate reader (PerkinElmer) using standard AlphaLISA settings. Analysis of raw data was carried out in Excel (Microsoft) and Prism (GraphPad). Signal was plotted vs. the decadal logarithm of compound concentration, and IC50 was determined by fitting a 4-parameter sigmoidal concentration response model.
In other experiments, cellular pERK was determined by In-Cell Western. […] Fixed cells were washed 4 times for 5 minutes with TBS containing 0.1% Triton X-100 (TBST) and then blocked with 100 μL Odyssey blocking buffer (LI-COR) for 60 minutes at room temperature. […] Cells were washed 4 times for 5 minutes with TBST. Secondary antibody (IR-800CW rabbit, LI-COR, diluted 1:800) and DNA stain DRAQS (LI-COR, diluted 1:2000) were added and incubated 1-2 hours at room temperature. Cells were washed 4 times for 5 minutes with TBST. Plates were scanned on a Li-COR Odyssey CLx Imager. Analysis of raw data was carried out in Excel (Microsoft) and Prism (Graph Pad). Signal was plotted vs. the decadal logarithm of compound concentration, and IC50 was determined by fitting a 4-parameter sigmoidal concentration response model.

| pIC50 (NCI-H358 (K-Ras G12C)) | pEC50 [1] | SMILES | IC50 (NCI-H358 (K-Ras G12C); read-out: Additional H358 Cell Viability assay data (K-Ras G12C, IC50, uM), NCI-H358, 5-day treatment) [µM] |
| --- | --- | --- | --- |
| 7.00 to 8.00 | > 5.30 | C=CC(=O)N1CC[C@H](C(=O)N(C)[C@H](C(=O)N[C@H]2Cc3cc(O)cc(c3)-c3ccc4c(c3)c(c(-c3ccc5cc(CN(C)C)n(C)c5c3)n4CC)CC(C)(C)COC(=O)[C@@H]3CCCN(N3)C2=O)C(C)C)C1 [Example A35] |  |
| 6.00 to 7.00 | > 5.30 | C=CC(=O)N1CCN(C(=O)N(C)[C@H](C(=O)N[C@H]2Cc3cc(O)cc(c3)-c3ccc4c(c3)c(c(-c3ccccc3CCOC)n4CC)CC(C)(C)COC(=O)[C@@H]3CCCN(N3)C2=O)C(C)C)CC1 [Example A18] |  |
| 7.00 to 8.00 | > 5.30 | C=CC(=O)N1CC[C@H](C(=O)N(C)[C@H](C(=O)N[C@H]2Cc3cc(O)cc(c3)-c3ccc4c(c3)c(c(-c3ccc(CN5CCCC5)cc3)n4CC)CC(C)(C)COC(=O)[C@@H]3CCCN(N3)C2=O)C(C)C)C1 [Example A10] |  |
| 7.00 to 8.00 | > 5.30 | C=CC(=O)N1CC[C@H](C(=O)N(C)[C@H](C(=O)N[C@H]2Cc3cc(O)cc(c3)-c3ccc4c(c3)c(c(-c3cccc(CN(C)C)c3)n4CC)CC(C)(C)COC(=O)[C@@H]3CCCN(N3)C2=O)C(C)C)C1 [Example A30] |  |
| 7.00 to 8.00 | > 5.30 | C=CC(=O)N1CC[C@H](C(=O)N(C)[C@H](C(=O)N[C@H]2Cc3nc(cs3)-c3ccc4c(c3)c(c(-c3cccnc3COC)n4CC)CC(C)(C)COC(=O)[C@@H]3CCCN(N3)C2=O)C(C)C)C1 [Example A94] |  |
| 7.00 to 8.00 | > 5.30 | C=CC(=O)N1CC[C@H](C(=O)N(C)[C@H](C(=O)N[C@H]2Cc3cc(O)cc(c3)-c3ccc4c(c3)c(c(-c3cncc(CN(C)C)c3)n4CC)CC(C)(C)COC(=O)[C@@H]3CCCN(N3)C2=O)C(C)C)C1 [Example A73] |  |
| 7.00 to 8.00 | > 5.30 | C=CC(=O)N1CC2(CCN([C@H](C(=O)N[C@H]3Cc4cc(O)cc(c4)-c4ccc5c(c4)c(c(-c4ccccc4CCOC)n5CC)CC(C)(C)COC(=O)[C@@H]4CCCN(N4)C3=O)C(C)C)C2=O)C1 [Example A31] |  |
| 7.00 to 8.00 | > 5.30 | CCn1c(-c2cnccc2COC)c2c3cc(ccc31)-c1cc(O)cc(c1)C[C@H](NC(=O)[C@H](C(C)C)N(C)C(=O)[C@H]1CCN(C(=O)/C=C/CN(C)C)C1)C(=O)N1CCC[C@H](N1)C(=O)OCC(C)(C)C2 [Example A87] |  |

| SMILES | pIC50 (NCI-H358 (K-Ras G12C)) | pEC50 [1] | IC50 (NCI-H358 (K-Ras G12C); read-out: Additional H358 Cell Viability assay data (K-Ras G12C, IC50, uM), NCI-H358, 5-day treatment) [µM] |
| --- | --- | --- | --- |
| C=CC(=O)N1CC[C@H](C(=O)N(C)[C@H](C(=O)N[C@H]2Cc3cc(OC(C)=O)cc(c3)-c3ccc4c(c3)c(c(-c3ccccc3CN(C)C)n4CC)CC(C)(C)COC(=O)[C@@H]3CCCN(N3)C2=O)C(C)C)C1 [Example A59] |  | > 5.30 | 0.1 to 1 |
| C=CC(=O)N1CC[C@H](C(=O)N(C)[C@H](C(=O)N[C@H]2Cc3cc(O)cc(c3)-c3ccc4c(c3)c(c(-c3cncc(C#N)c3)n4CC)CC(C)(C)COC(=O)[C@@H]3CCCN(N3)C2=O)C(C)C)C1 [Example A62] | 7.00 to 8.00 | > 5.30 |  |
| C=CC(=O)N1CC[C@H](C(=O)N(C)[C@H](C(=O)N[C@H]2Cc3cc(O)cc(c3)-c3ccc4c(c3)c(c(-c3c(F)cccc3CCOC)n4CC)CC(C)(C)COC(=O)[C@@H]3CCCN(N3)C2=O)C(C)C)C1 [Example A25] | 6.00 to 7.00 | > 5.30 |  |
| C=CC(=O)N1CC(C(=O)N(C)[C@H](C(=O)N[C@H]2Cc3cc(O)cc(c3)-c3ccc4c(c3)c(c(-c3cccnc3COC)n4CC)CC(C)(C)COC(=O)[C@@H]3CCCN(N3)C2=O)C(C)C)C1 [Example A70] | 7.00 to 8.00 | > 5.30 |  |
| C=CC(=O)N1CC[C@H](C(=O)N(C)[C@H](C(=O)N[C@H]2Cc3cc(O)cc(c3)-c3ccc4c(c3)c(c(-c3cccnc3COC)n4C)CC(C)(C)COC(=O)[C@@H]3CCCN(N3)C2=O)C(C)C)C1 [Example A66] | 7.00 to 8.00 | > 5.30 |  |
| C=CC(=O)N1C[C@H](C)[C@H](C(=O)N(C)[C@H](C(=O)N[C@H]2Cc3cc(O)cc(c3)-c3ccc4c(c3)c(c(-c3cccnc3COC)n4CC)CC(C)(C)COC(=O)[C@@H]3CCCN(N3)C2=O)C2CCCC2)C1 [Example A57] | > 8.00 | > 5.30 |  |

Source: patent publication US11566007B2, “Ras inhibitors” (Revolution Medicines, Inc., priority 2019, dated 2023)
